Measurements reported in patent publication US20210015793A1, “COMPOUNDS FOR TREATING CNS- AND NEURODEGENERATIVE DISEASES” (ETH ZURICH, priority 2018, published 2021).

What was measured:
[1] = tested on: rats subjected to the CUMS protocol; test: Immunoblot detection of hippocampal PHF-Tau (AT8) in aged rats subjected to CUMS; format: in vivo, rat; conditions: 16 months-old rats, CUMS for 4 weeks, oral treatment 8 mg/kg/d
Protocol: As a model for reproducing major features of sporadic AD and depression, 15 months-old male rats were […] according to the CUMS protocol for 4 weeks. The following stimuli were administered each week in a random order: two periods (7 h and 17 h) of 45° cage tilt; soaked cage for 17 h; food deprivation (24 h) and water deprivation (12 h), twice a week; paired housing (17 h); overnight illumination during the dark phase, twice a week; noise (85 dB) in the room for 5 h, twice a week; flashing light (60 flashes/min) for 6 h, three times a week (AbdAlla et al., Biomed. Res. Int. 2015:917156 (2015); El-faramawy et al., Pharmacol. Biochem. Behav. 91, 339-344 (2009)). The sucrose preference test (2% sucrose in water) was done immediately after a period of food and water deprivation. […]
For immunoblot detection of PHF-Tau in the hippocampus of aged 16 month-old rats subjected to the CUMS protocol for 4 weeks, hippocampi were dissected out from isolated brains on ice, pulverized under liquid nitrogen, and proteins were extracted with guanidine-hydrochloride (6.25 M guanidine hydrochloride in 50 mM Tris, pH 8.0 supplemented with 1× protease inhibitors and 1× phosphatase inhibitors) for 30 min at 4° C. […] For quantitative analysis, quantitative immunoblot evaluation was performed. To control for equal protein loading, the total content of hippocampal Gnb was determined. […]

[2] = tested on: Tg2576 AD mice; test: Abeta plaque load by immunohistology (BAM-10) in Tg2576 mice; format: in vivo, mouse; conditions: 18-month-old Tg2576 mice, 8 mg/kg/d in drinking water for 6 months, vs untreated Tg2576 controls
From the text: For a genetic model of familial AD (FAD), Tg2576 mice (Taconic Biosciences, Rensselaer, N.Y., USA) were used with neuron-specific overexpression of human APPSwe, i.e the Swedish mutation of APP695 isolated from a Swedish family with FAD featuring the double mutation K670N/M671L (Hsiao et al., Science 274, 99-103 (1996)). As a genetic model of tauopathy, the Tg-TauP301L mice (Model 2508, Taconic Biosciences, Rensselaer, N.Y., USA) with neuron-specific expression of the most common FTDP-17 (frontotemporal dementia and parkinsonism linked to chromosome 17) mutation (Lewis et al., Nature Genetics 25, 402-405 (2000)) were used. To enhance neurodegeneration and neuronal loss, the CUMS (chronic unpredictable mild stress) protocol was performed with male 12 months-old Tg2576 mice for 3 months essentially as described (AbdAlla et al., J. Biol. Chem. 284, 6554-6565 (2009); AbdAlla et al., J. Biol. Chem. 284, 6566-6574 (2009)). […]
For Abeta plaque load quantification by immunohistochemistry, paraffin-embedded brain sections (or cryosections) (8 microm, 10-15 sections/brain taken at 30-50 microm intervals) were prepared from brains isolated from 18-month-old Tg2576 mice (Taconic Biosciences, Rensselaer, N.Y., USA) treated for six months without and with Compound-1 and Compound-4 (8 mg/kg body weight/day in drinking water). […]

O=C(C1=C(O)C(c2ccccc2)N(c2ccc3c(c2)OCO3)C1=O)C1CC1 (centres unmarked) [Compound-1, 1-(1,3-benzodioxol-5-yl)-4-(cyclopropane-carbonyl)-3-hydroxy-2-phenyl-2H-pyrrol-5-one]
hippocampal PHF Tau hyperphosphorylation (immunoblot AT8) [1]: retard PHF Tau hyperphosphorylation | Abeta plaque load in hippocampus and frontal cortex [2]: significantly retarded the accumulation of Abeta plaques
